Starred links: 1 amine or outer side, 2 acyl side, 3 side chain; linkers in the order of their positions; H or OH if unused. Positions of bridges follow the written chain, without caps; N, C: chain ends. Non-standard residues stand in square brackets, D forms with d. Residues, ends and D or L forms follow the SMILES beside them. ξ: configuration not given here. *: point of attachment. pTerphenylCO(4''-OnC5H11) = CCCCCOc1ccc(-c2ccc(-c3ccc(C(=O)*)cc3)cc2)cc1; Orn(4R-OH,5R-OH) = O=C([C@H](C[C@@H](O)[C@@H](O)N[*:3])N[*:1])[*:2]; hTyr(3S-OH,4S-OH) = N[C@H](C(=O)O)[C@H](O)[C@@H](O)c1ccc(O)cc1; Pro(3S-OH,4S-Me) = C[C@H]1CN[C@H](C(=O)O)[C@H]1O; ξPro(4R-OH) = O=C(O)C1C[C@@H](O)CN1
System: Bovine Brain Microvascular Endothelial Cells (BBMEC)
Assay: Oxygen and glucose deprivation followed by replenishment, cell survival (calcein AM), BBMEC
Type: cell-based
Method: Anidulafungin and micafungin were tested on Human Renal Glomerular Endothelial Cells (HRGEC, Innoprot P10665), on Human Renal Proximal Tubular Epithelial Cells (HRPTEpiC, Innoprot P10662), on Human Astrocytes (HA, caltag SC-1800), on Human Cardiac Microvascular Endothelial Cells (HCMEC, Caltag SC-6000), on Human Hepatic Sinusoidal Endothelial Cells (HHSEC, Caltag SC-5000), on Rat Primary Kidney Glomerular Endothelial cells (Cellbiologics, RN-6014G) and on Bovine Brain Microvascular Endothelial Cells (BBMEC, Caltag SC-B100).
In a first phase, these isolated, purified and cryopreserved cells are thawed and multiplied according to the supplier's recommendations in T75 or T175 flasks pre-coated with 2 μg of fibronectin/[…] (CORNING) for HRGEC, HCMEC, HHSEC and BBMEC, or 2 μg poly-L-lysin/cm^2 (Caltag SC-0403) for HRPTEpiC and HA, or 15 mL/flask 175 cm^2 gelatin-based solution (Cellbiologics) in the presence of endothelial cell supplemented growth medium ECM (P60104, INNOPROT, Caltag, SC-1001) for HRGEC, HCMEC, HHSEC, RPKGEC or BBMEC, or astrocyte cell supplemented growth medium AM (Caltag SC-1801) for HA or epithelial cell supplemented growth medium EpiCM (P60106, INNOPROT) for HRPTEpiC, at 37° C. under 5% CO2 and saturated humidity until their confluency. They are then harvested by trypsinization according to the method described by the supplier for exactly 5 minutes and then reseeded in new flasks a maximum of three times.
To carry out the oxygen and glucose deprivation test followed by their replenishment, the cells will be seeded in 96-well black plates with transparent flat bottom (GREINER). Once a sufficient number of cells has been obtained to allow seeding of 2000 to 15000 cells per well of 96-well plates depending on the cell type, the cells are seeded in these 96-well plates previously coated with an extracellular matrix as listed above for the flasks. The cells are cultured for 5 to 8 days according to the cell type, in the presence of the same growth medium as in the flask as described above except for HRGEC and HRPTEpiC for which DMEM (DUTSCHER) with 1 g/L of supplemented glucose is used, at 37° C. under 5% CO2 and saturated humidity to obtain confluency.
On the first day of oxygen and glucose deprivation, (5th, 6th, 7th or 8th day of culture), the culture conditions are drastically changed. The medium of all plates is removed and replaced by DMEM (DUTSCHER) medium without glucose and supplemented only with 1% penicillin-streptomycin (DUTSCHER). Anidulafungin or micafungin dissolved in dimethyl sulfoxide (DMSO) is then added to each well at the desired concentration, resulting in a maximum of 1% DMSO, and the plates are placed under hypoxia at <1% 02 and 5% CO2 at 37° C. for 24 hours of culture. Each compound was tested in a concentration range.
After 24 hours, the growth medium is changed and replaced by a richer medium, DMEM (DUTSCHER) at 1 g/L glucose and 2% FBS (INNOPROT) and 1% penicillin-streptomycin (DUTSCHER). These media will have been pre-equilibrated at 37° C. in advance. The cells are then returned to culture at 37° C. under 20% 02 and 5% CO2 for 22h.
After 22 hours of reoxygenation, the potential protective effect of anidulafungin or micafungin is measured by a cell viability test using calcein AM (CORNING), which is a dye substrate. The calcein AM can easily cross the cell membrane of the viable cells. The AM ester groups mask the part of the molecule that chelates calcium. Once inside the cells, the (non-fluorescent) calcein AM is hydrolyzed to (fluorescent) calcein by endogenous esterases. The resulting calcein molecule binds to calcium inside the cell and remains trapped inside the cell. These molecules emit strong green fluorescence when subjected to […] of a particular wavelength (495 nm). Since dead cells lack esterase activity, only living cells are labelled.
This cell viability test is performed in two steps. […]

[1] = [Anidulafungin] log μM 0.1760913
[2] = [Anidulafungin] log μM −0.1249387
[3] = [Anidulafungin] log μM −0.30103
[4] = [Anidulafungin] log μM −0.5228788

## CCCCCOc1ccc(-c2ccc(-c3ccc(C(=O)N[C@H]4C[C@@H](O)[C@@H](O)NC(=O)[C@@H]5[C@@H](O)[C@@H](C)CN5C(=O)[C@H]([C@@H](C)O)NC(=O)[C@H]([C@H](O)[C@@H](O)c5ccc(O)cc5)NC(=O)C5C[C@@H](O)CN5C(=O)[C@H]([C@@H](C)O)NC4=O)cc3)cc2)cc1 (stereo partly drawn) [Anidulafungin] ({pTerphenylCO(4''-OnC5H11)}-[Orn(4R-OH,5R-OH)]T[ξPro(4R-OH)][hTyr(3S-OH,4S-OH)]T[Pro(3S-OH,4S-Me)]; lactam 1-C)
[Anidulafungin] log μM 0
  Globalfluo assay 1: 941644 arbitrary units
  Globalfluo assay 2: 1153883 arbitrary units
  Globalfluo assay 3: 1374585 arbitrary units
  Mean globalfluo: 1156704 arbitrary units
  Survival rate (%): 30%
[1]
  Globalfluo assay 1: 2348228 arbitrary units
  Globalfluo assay 2: 1617378 arbitrary units
  Globalfluo assay 3: 1887981 arbitrary units
  Mean globalfluo: 1951196 arbitrary units
  Survival rate (%): 77%
[Anidulafungin] log μM 0.30103
  Globalfluo assay 1: 2455048 arbitrary units
  Globalfluo assay 2: 2409886 arbitrary units
  Globalfluo assay 3: 4507112 arbitrary units
  Mean globalfluo: 3124015 arbitrary units
  Survival rate (%): 145%
[Anidulafungin] log μM 0.60206
  Globalfluo assay 1: 4710709 arbitrary units
  Globalfluo assay 2: 5014887 arbitrary units
  Globalfluo assay 3: 4901610 arbitrary units
  Mean globalfluo: 4875735 arbitrary units
  Survival rate (%): 248%
[2]
  Globalfluo assay 1: 1165160 arbitrary units
  Globalfluo assay 2: 919370 arbitrary units
  Globalfluo assay 3: 944308 arbitrary units
  Mean globalfluo: 1009613 arbitrary units
  Survival rate (%): 22%
[3]
  Globalfluo assay 1: 744687 arbitrary units
  Globalfluo assay 2: 1045135 arbitrary units
  Globalfluo assay 3: 678965 arbitrary units
  Mean globalfluo: 822929 arbitrary units
  Survival rate (%): 11%
[4]
  Globalfluo assay 1: 800327 arbitrary units
  Globalfluo assay 2: 708910 arbitrary units
  Globalfluo assay 3: 845212 arbitrary units
  Mean globalfluo: 784816 arbitrary units
  Survival rate (%): 8%
[Anidulafungin] log μM −1
  Globalfluo assay 1: 649447 arbitrary units
  Globalfluo assay 2: 1235676 arbitrary units
  Globalfluo assay 3: 807779 arbitrary units
  Mean globalfluo: 897634 arbitrary units
  Survival rate (%): 15%
[Anidulafungin] log μM −2
  Globalfluo assay 1: 664396 arbitrary units
  Globalfluo assay 2: 532817 arbitrary units
  Globalfluo assay 3: 541230 arbitrary units
  Mean globalfluo: 579481 arbitrary units
  Survival rate (%): −4%

— patent publication US11458189B2, “Cytoprotective drugs” (BALMES TRANSPLANTATION, priority 2017, dated 2022)
